Reference: patent US20250326744A1, “PIPERAZINE DERIVATIVE OR SALT THEREOF, AND PHARMACEUTICAL COMPOSITION” (priority 2022, published 2025)
Structures can show the parent of a compound that is named as a salt.

What was measured:
[1] = test system: mexB (PA) strain; assay: Combinational effect with antibacterial agent against Pseudomonas aeruginosa (Test Examples 2 and 4): mexB (PA) strain with LVFX, TC or AZT at 1/4 MIC, EC99; format: cell-based; settings: mexB (PA) strain, Test Example 4; for EC99, combinational effect with AZT, mexB (PA): combined with AZT at 1/4 MIC; for EC99, combinational effect with LVFX, mexB (PA): combined with LVFX at 1/4 MIC; for EC99, combinational effect with TC, mexB (PA): combined with TC at 1/4 MIC
Method in brief: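 P. aeruginosa mexB (PA) strain, lacking MexCD-OprJ, MexEF-OprN and MexXY and overexpressing MexAB-OprM, grown 16–20 h in CAMHB (10^4–5 CFU/well) with LVFX, TC or AZT at ¼ MIC plus test compound at 0–800 μM. Growth read as OD595; EC99 is the lowest compound concentration giving ≥99% growth inhibition.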

[2] = test system: S-3769 strain; assay: Combinational effect with antibacterial agent against Pseudomonas aeruginosa (Test Examples 2 and 4): S-3769 strain with AMK or GM at 1/4 MIC, EC99; format: cell-based; settings: S-3769 strain, Test Example 4; for EC99, combinational effect with AMK, S-3769 strain: combined with AMK at 1/4 MIC; for EC99, combinational effect with GM, S-3769 strain: combined with GM at 1/4 MIC
Method in brief: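 P. aeruginosa S-3769 (clinical isolate, MexY overexpressed) grown 16–20 h in CAMHB, 10^4 to 5 CFU/well, with AMK or GM at ¼ MIC plus test compound 0–800 μM. Growth read as OD595; EC99 is the lowest compound concentration giving ≥99% growth inhibition.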

| SMILES | EC99, combinational effect with AZT, mexB (PA) [1] | EC99, combinational effect with LVFX, mexB (PA) [1] | EC99, combinational effect with TC, mexB (PA) [1] | EC99, combinational effect with AMK, S-3769 strain [2] | EC99, combinational effect with GM, S-3769 strain [2] |
| --- | --- | --- | --- | --- | --- |
| CCOc1cccc(F)c1CN1CCN(C(=O)[C@H](N)C2CCN(CCc3cc(Cl)ccc3-c3cc(N)cc(F)c3)CC2)CC1 [Example 558, Hydrobromide of (R)-2-amino-2-(1-(2-(3′-amino-4-chloro-5′-fluoro-[1,1-biphenyl]-2-yl)ethyl)piperidin-4-yl)-1-(4-(2-ethoxy-6-fluorobenzyl)piperazin-1-yl)ethan-1-one] | A (12.5 μM<EC99≤25 μM) | S (EC99≤12.5 μM) | A (12.5 μM<EC99≤25 μM) | S (EC99≤12.5 μM) | S (EC99≤12.5 μM) |
| CCOc1cccc(F)c1CN1CCN(C(=O)[C@H](N)C2CCN(CCc3cc(Cl)ccc3-c3cc(N)ccc3F)CC2)CC1 [Example 559, Hydrobromide of (R)-2-amino-2-(1-(2-(5′-amino-4-chloro-2′-fluoro-[1,1-biphenyl]-2-yl)ethyl)piperidin-4-yl)-1-(4-(2-ethoxy-6-fluorobenzyl)piperazin-1-yl)ethan-1-one] | S (EC99≤12.5 μM) | S (EC99≤12.5 μM) | S (EC99≤12.5 μM) | A (12.5 μM<EC99≤25 μM) | S (EC99≤12.5 μM) |
| CCOc1cccc(F)c1CN1CCN(C(=O)[C@H](N)C2CCN(CCc3cc(Cl)ccc3-c3cc(N)ccc3Cl)CC2)CC1 [Example 560, Hydrobromide of (R)-2-amino-2-(1-(2-(5′-amino-2′,4-dichloro-[1,1-biphenyl]-2-yl)ethyl)piperidin-4-yl)-1-(4-(2-ethoxy-6-fluorobenzyl)piperazin-1-yl)ethan-1-one] | S (EC99≤12.5 μM) | S (EC99≤12.5 μM) | S (EC99≤12.5 μM) | A (12.5 μM<EC99≤25 μM) | A (12.5 μM<EC99≤25 μM) |
| CCOc1cccc(F)c1CN1CCN(C(=O)[C@H](N)C2CCN(CCc3cc(Cl)ccc3-c3cccc(NC)c3)CC2)CC1 [Example 561, Hydrobromide of (R)-2-amino-2-(1-(2-(4-chloro-3′-(methylamino)-[1,1-biphenyl]-2-yl)ethyl)piperidin-4-yl)-1-(4-(2-ethoxy-6-fluorobenzyl)piperazin-1-yl)ethan-1-one] | S (EC99≤12.5 μM) | S (EC99≤12.5 μM) | A (12.5 μM<EC99≤25 μM) | S (EC99≤12.5 μM) | S (EC99≤12.5 μM) |
| CCOc1cccc(F)c1CN1CCN(C(=O)[C@H](N)C2CCN(CCc3cc(Cl)ccc3-c3cccc(N(C)C)c3)CC2)CC1 [Example 562, Hydrobromide of (R)-2-amino-2-(1-(2-(4-chloro-3′-(dimethylamino)-[1,1-biphenyl]-2-yl)ethyl)piperidin-4-yl)-1-(4-(2-ethoxy-6-fluorobenzyl)piperazin-1-yl)ethan-1-one] | A (12.5 μM<EC99≤25 μM) | B (25 μM<EC99≤100 μM) | B (25 μM<EC99≤100 μM) | S (EC99≤12.5 μM) | S (EC99≤12.5 μM) |
| CCOc1cccc(F)c1CN1CCN(C(=O)[C@H](N)C2CCN(CCc3cc(Cl)ccc3-c3cnc(NC)c(C)c3)CC2)CC1 [Example 563, Hydrobromide of (R)-2-amino-2-(1-(5-chloro-2-(5-methyl-6-(methylamino)pyridine-3-yl)phenethyl)piperidin-4-yl)-1-(4-(2-ethoxy-6-fluorobenzyl)piperazin-1-yl)ethan-1-one] | C (100 μM<EC99) | C (100 μM<EC99) | C (100 μM<EC99) | A (12.5 μM<EC99≤25 μM) | A (12.5 μM<EC99≤25 μM) |
| CSc1ccccc1CN1CCN(C(=O)[C@H](N)C2CCN(CCc3cc(Cl)ccc3-c3cc(N)cc(F)c3)CC2)CC1 [Example 564, Hydrobromide of (R)-2-amino-2-(1-(2-(3′-amino-4-chloro-5′-fluoro-[1,1-biphenyl]-2-yl)ethyl)piperidin-4-yl)-1-(4-(2-(methylthio)benzyl)piperazin-1-yl)ethan-1-one] | S (EC99≤12.5 μM) | S (EC99≤12.5 μM) | S (EC99≤12.5 μM) | B (25 μM<EC99≤100 μM) | B (25 μM<EC99≤100 μM) |
| CNc1cccc(-c2ccc(Cl)cc2CCN2CCC([C@@H](N)C(=O)N3CCN(Cc4ccccc4SC)CC3)CC2)c1 [Example 565, Hydrobromide of (R)-2-amino-2-(1-(2-(4-chloro-3′-(methylamino)-[1,1-biphenyl]-2-yl)ethyl)piperidin-4-yl)-1-(4-(2-(methylthio)benzyl)piperazin-1-yl)ethan-1-one] | A (12.5 μM<EC99≤25 μM) | S (EC99≤12.5 μM) | S (EC99≤12.5 μM) | B (25 μM<EC99≤100 μM) | B (25 μM<EC99≤100 μM) |
| CCOc1cccc(F)c1CN1CCN(C(=O)[C@H](N)C2CC[N+](C)(CCc3cc(Cl)ccc3-c3ccccc3)CC2)CC1 (stereo partly drawn) [Example 568, Hydrobromide of (R)-4-(1-amino-2-(4-(2-ethoxy-6-fluorobenzyl)piperazin-1-yl)-2-oxoethyl)-1-(2-(4-chloro-[1,1-biphenyl]-2-yl)ethyl)-1-methylpiperidin-1-ium bromide] | C (100 μM<EC99) | C (100 μM<EC99) | C (100 μM<EC99) | S (EC99≤12.5 μM) | S (EC99≤12.5 μM) |
| CCOc1cccc(F)c1CN1CCN(C(=O)[C@H](N)C2CCC(N(C)Cc3ccccc3)CC2)CC1 (stereo partly drawn) [Example 570, Hydrobromide of (R)-2-amino-2-(4-(benzyl(methyl)amino)cyclohexyl)-1-(4-(2-ethoxy-6-fluorobenzyl)piperazin-1-yl)ethan-1-one] | C (100 μM<EC99) | C (100 μM<EC99) | C (100 μM<EC99) | B (25 μM<EC99≤100 μM) | B (25 μM<EC99≤100 μM) |
| CCOc1cccc(F)c1CN1CCN(C(=O)[C@H](N)C2CCN(CCc3cc(Cl)ccc3-c3cccc(O)c3Cl)CC2)CC1 [Example 571, (R)-2-amino-2-(1-(2-(2′,4-dichloro-3′-hydroxy-[1,1′-biphenyl]-2-yl)ethyl)piperidin-4-yl)-1-(4-(2-ethoxy-6-fluorobenzyl)piperazin-1-yl)ethan-1-one] | S (EC99≤12.5 μM) | S (EC99≤12.5 μM) | S (EC99≤12.5 μM) | S (EC99≤12.5 μM) | S (EC99≤12.5 μM) |
| CCOc1cccc(F)c1CN1CCN(C(=O)[C@H](N)C2CCN(CCc3cc(Cl)ccc3-c3cncc(O)c3)CC2)CC1 [Example 572, Hydrochloride of (R)-2-amino-2-(1-(5-chloro-2-(5-hydroxypyridin-3-yl)phenethyl)piperidin-4-yl)-1-(4-(2-ethoxy-6-fluorobenzyl)piperazin-1-yl) ethan-1-one] | B (25 μM<EC99≤100 μM) | C (100 μM<EC99) | B (25 μM<EC99≤100 μM) | A (12.5 μM<EC99≤25 μM) | A (12.5 μM<EC99≤25 μM) |
| COc1cccc(O)c1CN1CCN(C(=O)[C@H](N)C2CCN(CCc3cc(Cl)ccc3-c3ccccc3)CC2)CC1 [Example 575, Hydrochloride of (R)-2-amino-2-(1-(2-(4-chloro-[1,1-biphenyl]-2-yl)ethyl)piperidin-4-yl)-1-(4-(2-hydroxy-6-methoxybenzyl)piperazin-1-yl) ethan-1-one] | S (EC99≤12.5 μM) | S (EC99≤12.5 μM) | A (12.5 μM<EC99≤25 μM) | A (12.5 μM<EC99≤25 μM) | A (12.5 μM<EC99≤25 μM) |
| CCOc1cccc(F)c1CN1CCN(C(=O)[C@H](N)C2CCN(CCc3cc(Cl)ccc3-c3c(O)cccc3F)CC2)CC1 [Example 578, Hydrochloride of (2R)-2-amino-2-(1-(2-(4-chloro-2′-fluoro-6′-hydroxy-[1,1-biphenyl]-2-yl)ethyl)piperidin-4-yl)-1-(4-(2-ethoxy-6-fluorobenzyl)piperazin-1-yl) ethan-1-one] | B (25 μM<EC99≤100 μM) | A (12.5 μM<EC99≤25 μM) | B (25 μM<EC99≤100 μM) | B (25 μM<EC99≤100 μM) | B (25 μM<EC99≤100 μM) |
